Reference: PMC2409895, “Antitumour efficacy of VEGFR2 tyrosine kinase inhibitor correlates with expression of VEGF and its receptor VEGFR2 in tumour models” (British Journal of Cancer, 2004)

Columns and labels:
human VEGFR2 kinase = target: T1, human VEGFR2 kinase (Homo sapiens, UniProt P35968); assay: VEGFR2 kinase assay (HTRF); assay type: biochemical; details: Table 1
T1 construct: GST-fusion protein encoding the catalytic carboxyl-terminus of human VEGFR kinase 1, 2, or 3; made in house; host or cells: baculovirus expression system
Description: (§1) Vascular endothelial growth factor receptor kinase assays were carried out in a homogenous time-resolved fluorescence (HTRF) format in 384-well microtitre plates using a purified, baculovirus-expressed GST-fusion protein encoding the catalytic carboxyl-terminus of human VEGFR kinase 1, 2, or 3. Reactions were initiated by the addition of 10 μl of activated VEGFR kinase (1 nM, 0.1 M HEPES pH 7.5, 0.1 mg ml^−1 BSA, and 0.30 mM DTT) to 10 μl of substrate (360 nM biotin-aminohexyl-EEEEYFELVAKKKK-NH2 peptide, 75 μM ATP, 10 mM MgCl2) and 1 μl of small molecule inhibitor at various concentrations. Plates were incubated at room temperature for 60 min, and the reaction was stopped by the addition of 20 μl 100 mM EDTA. Homogenous time-resolved fluorescence reagents (20 μl 15 nM streptavidin-linked allophycocyanin, 1 nM europium-labelled anti-phosphotyrosine antibody in 0.1 M HEPES, pH 7.5, 0.1 mg ml^−1 BSA) were added and plates were incubated for a minimum of 10 min. The fluorescence at 665 nm was measured with a Victor plate reader (Wallac, Shelton, CT, USA) using a time delay of 50 μs. […] Data were fitted with a curve described by: y=((Vmax × x)/(K+x)+Y2), where Vmax is the upper asymptote, Y2 is the Y intercept, and K is the IC50.

human VEGFR kinase 3 = target: T2, human VEGFR kinase 3 (Homo sapiens, UniProt P35916); assay: VEGFR3 kinase assay (HTRF); assay type: biochemical
T2 construct: GST-fusion protein encoding the catalytic carboxyl-terminus of human VEGFR kinase 1, 2, or 3; made in house; host or cells: baculovirus expression system
Description: as §1

human VEGFR kinase 1 = target: T3, human VEGFR kinase 1 (Homo sapiens, UniProt P17948); assay: VEGFR1 kinase assay (HTRF); assay type: biochemical
T3 construct: GST-fusion protein encoding the catalytic carboxyl-terminus of human VEGFR kinase 1, 2, or 3; made in house; host or cells: baculovirus expression system
T3 sequence (P17948 827-1158 limits assumed): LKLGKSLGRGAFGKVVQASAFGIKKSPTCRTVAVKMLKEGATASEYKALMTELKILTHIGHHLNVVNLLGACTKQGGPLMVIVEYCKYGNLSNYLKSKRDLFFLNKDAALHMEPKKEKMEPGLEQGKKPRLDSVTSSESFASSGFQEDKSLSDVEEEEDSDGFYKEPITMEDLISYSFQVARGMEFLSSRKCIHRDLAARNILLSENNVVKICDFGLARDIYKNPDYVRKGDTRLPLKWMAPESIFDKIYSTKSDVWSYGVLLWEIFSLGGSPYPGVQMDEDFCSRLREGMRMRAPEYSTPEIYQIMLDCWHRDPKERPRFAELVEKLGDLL
Description: as §1

SRC = target: T4, SRC (Homo sapiens, UniProt P12931); assay: SRC kinase assay (HTRF); assay type: biochemical
T4 construct: Each kinase assay was conducted using purified recombinant catalytic domain of the enzyme
Description: (§2) Inhibition of several other kinases by small molecules was also determined. Each kinase assay was conducted using purified recombinant catalytic domain of the enzyme. The concentration of ATP and kinase-specific biotinylated peptide in each assay was below the apparent Km of the respective substrate. Inhibition of c-Fms, SRC, and Tie-2 was evaluated by an HTRF format and the inhibition of CDK2, CDK4, EGFR, ErbB2, and Eph-B4 was detected by scintillation proximity assay.

Eph-B4 = target: T5, Eph-B4 (Homo sapiens, UniProt P54760); assay: Eph-B4 kinase assay (scintillation proximity); assay type: biochemical
T5 construct: Each kinase assay was conducted using purified recombinant catalytic domain of the enzyme
T5 sequence (P54760 615-899 limits assumed): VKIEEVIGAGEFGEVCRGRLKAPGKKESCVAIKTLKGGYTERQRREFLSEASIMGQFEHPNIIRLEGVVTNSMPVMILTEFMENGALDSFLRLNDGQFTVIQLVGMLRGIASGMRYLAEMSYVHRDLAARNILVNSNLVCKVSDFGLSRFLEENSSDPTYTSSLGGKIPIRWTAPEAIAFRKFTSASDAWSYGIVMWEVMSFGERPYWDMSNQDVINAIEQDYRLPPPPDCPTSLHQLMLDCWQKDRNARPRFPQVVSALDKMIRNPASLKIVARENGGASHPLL
Description: as §2

c-Fms = target: T6, c-Fms (Homo sapiens, UniProt P07333); assay: c-Fms kinase assay (HTRF); assay type: biochemical
T6 construct: Each kinase assay was conducted using purified recombinant catalytic domain of the enzyme
T6 sequence (P07333 582-910 limits assumed): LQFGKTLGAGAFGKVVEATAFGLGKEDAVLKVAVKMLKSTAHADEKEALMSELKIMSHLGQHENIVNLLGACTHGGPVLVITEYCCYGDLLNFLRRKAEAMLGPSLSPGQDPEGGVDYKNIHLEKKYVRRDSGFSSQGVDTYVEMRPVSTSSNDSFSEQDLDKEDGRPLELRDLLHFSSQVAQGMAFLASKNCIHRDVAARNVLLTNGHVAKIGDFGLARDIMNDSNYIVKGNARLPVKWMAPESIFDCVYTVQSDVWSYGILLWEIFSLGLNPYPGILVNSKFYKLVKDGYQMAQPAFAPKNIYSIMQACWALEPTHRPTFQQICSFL
Description: as §2

Tie2 = target: T7, Tie2 (Homo sapiens, UniProt Q02763); assay: Tie-2 kinase assay (HTRF); assay type: biochemical
T7 construct: Each kinase assay was conducted using purified recombinant catalytic domain of the enzyme
Description: as §2

EGFR = target: T8, EGFR (Homo sapiens, UniProt P00533); assay: EGFR kinase assay (scintillation proximity); assay type: biochemical
T8 construct: Each kinase assay was conducted using purified recombinant catalytic domain of the enzyme
Description: as §2

ErbB2 = target: T9, ErbB2 (Homo sapiens, UniProt P04626); assay: ErbB2 kinase assay (scintillation proximity); assay type: biochemical
T9 construct: Each kinase assay was conducted using purified recombinant catalytic domain of the enzyme
Description: as §2

CDK2 = target: T10, CDK2 (Homo sapiens, UniProt P24941); assay: CDK2 kinase assay (scintillation proximity); assay type: biochemical
T10 construct: Each kinase assay was conducted using purified recombinant catalytic domain of the enzyme
Description: as §2

CDK4 = target: T11, CDK4 (Homo sapiens, UniProt P11802); assay: CDK4 kinase assay (scintillation proximity); assay type: biochemical
T11 construct: Each kinase assay was conducted using purified recombinant catalytic domain of the enzyme
Description: as §2

[1] = tested on: HUVEC grown in presence of VEGF; assay: VEGF-induced HUVEC proliferation (BrdU incorporation); assay type: cell-based; details: Homo sapiens, VEGF 10 ng ml^−1, 72 h
Description: (§3) Effect of kinase inhibitors on cell proliferation was measured using BrdU incorporation method using commercially available kits (Roche Diagnostics, Indianapolis, IN, USA). Briefly, HUVEC were seeded in a medium containing 5% FBS in type 1 Collagen-coated 96-well plates and incubated overnight at 37°C, 5% CO2. The medium was aspirated from the cells, and various concentrations of kinase inhibitors in serum-free medium were added to each well. After 30 min, VEGF (10 ng ml^−1) or bFGF (0.3 ng ml^−1) was added to the wells. Cells were incubated for an additional 72 h and BrdU (10 μM) was added during the last 18–24 h of incubation. Data were fitted with a curve described by the equation, y=Vmax × (1−(x/(K+x))), where K is equal to the IC50.

[2] = tested on: HUVEC grown in presence of bFGF; assay: bFGF-induced HUVEC proliferation (BrdU incorporation); assay type: cell-based; details: Homo sapiens, bFGF 0.3 ng ml^−1, 72 h
Description: as §3

HT29 xenograft = assay: HT29 tumour xenograft growth inhibition; assay type: in vivo, nude mice; details: for % Inhibition of tumour growth: vs vehicle
Description: (§4) Tumours were initiated by injection of tumour cell suspension subcutaneously in 8–12-week-old nude mice, except PC3 tumours that were grown in SCID mice (Charles River Laboratories, Wilmington, MA, USA). When tumours reached a volume of 100–200 mm^3, mice were randomised into groups of eight prior to treatment with VEGFR kinase inhibitors. Animals were treated with kinase inhibitors (10, 30, or 100 mg kg^−1) or vehicle (0.5% hydroxypropyl methyl cellulose, 0.1% Tween 80 in sterile water), administered once or twice daily by oral gavage for 2–3 weeks (till the mean tumour volume reached 1000–1500 mm^3). Tumour volume was measured twice weekly by calipers, using the formula (length × width × width × 0.5), where length was the longest diameter across the tumour, and width was the corresponding perpendicular. Tumour growth inhibition was calculated by change in the slopes of tumour growth for control and treated tumours. The oral dose of GW654652 producing 50% inhibition of tumour growth (ED50, mg kg^−1) was estimated by a programme that performed a weighted nonlinear regression analysis of data using the equation: y=Vmax(1−(x/(K+x))), where K is equal to ED50. All animal studies were carried out with the appropriate institutional ethical committee approval and they met the standards of both the US federal regulations and those required by the UKCCCR guidelines ([Workman et al, 1998]).

HCT116 xenograft = assay: HCT116 tumour xenograft growth inhibition; assay type: in vivo, nude mice; details: for % Inhibition of tumour growth: vs vehicle
Description: as §4

HN5 xenograft = assay: HN5 tumour xenograft growth inhibition; assay type: in vivo, nude mice; details: for % Inhibition of tumour growth: vs vehicle
Description: as §4

SW620 xenograft = assay: SW620 tumour xenograft growth inhibition; assay type: in vivo, nude mice; details: for % Inhibition of tumour growth: vs vehicle
Description: as §4

PC3 xenograft = assay: PC3 tumour xenograft growth inhibition; assay type: in vivo, SCID mice; details: for % Inhibition of tumour growth: vs vehicle
Description: as §4

A375P xenograft = assay: A375P tumour xenograft growth inhibition; assay type: in vivo, nude mice; details: for % Inhibition of tumour growth: vs vehicle
Description: as §4

Pharmacokinetics in mice = assay type: in vivo, mouse; details: for free Cmax: mice, based on 99% protein binding and total plasma concentration
Pharmacokinetics in dog = assay type: in vivo
Protein binding = assay type: in vitro ADME; details: mouse, plasma; used to calculate free Cmax in mice
[3] = ratio of IC50 of the kinase to IC50 vs VEGFR-2

T8 sequence (P00533 712-979 limits assumed, species assumed): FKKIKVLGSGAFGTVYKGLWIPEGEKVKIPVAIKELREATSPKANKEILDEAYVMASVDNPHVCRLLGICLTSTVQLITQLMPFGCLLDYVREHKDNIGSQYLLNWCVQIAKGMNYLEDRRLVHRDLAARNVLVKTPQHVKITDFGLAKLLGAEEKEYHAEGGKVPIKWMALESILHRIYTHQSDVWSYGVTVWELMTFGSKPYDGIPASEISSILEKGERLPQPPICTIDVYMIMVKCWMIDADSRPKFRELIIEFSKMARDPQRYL
T2 sequence (P35916 845-1173 limits assumed): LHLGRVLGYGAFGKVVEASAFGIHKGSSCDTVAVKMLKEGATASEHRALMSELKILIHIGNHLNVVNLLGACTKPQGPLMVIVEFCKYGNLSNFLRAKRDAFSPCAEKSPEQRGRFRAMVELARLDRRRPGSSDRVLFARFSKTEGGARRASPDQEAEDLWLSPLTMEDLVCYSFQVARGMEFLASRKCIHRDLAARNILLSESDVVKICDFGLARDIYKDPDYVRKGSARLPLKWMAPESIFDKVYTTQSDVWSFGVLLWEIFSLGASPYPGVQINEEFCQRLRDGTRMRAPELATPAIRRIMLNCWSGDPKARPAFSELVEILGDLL
T11 sequence (P11802 6-295 limits assumed, species assumed): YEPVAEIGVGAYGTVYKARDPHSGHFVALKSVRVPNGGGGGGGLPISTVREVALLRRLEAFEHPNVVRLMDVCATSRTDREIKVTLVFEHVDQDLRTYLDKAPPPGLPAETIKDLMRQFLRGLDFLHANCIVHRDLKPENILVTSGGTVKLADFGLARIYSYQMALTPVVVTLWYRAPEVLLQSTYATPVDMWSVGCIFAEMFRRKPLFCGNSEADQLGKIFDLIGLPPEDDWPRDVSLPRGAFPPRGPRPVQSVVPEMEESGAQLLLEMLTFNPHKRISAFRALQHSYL
T11 sequence (P24385 whole entry partner, species assumed, the tested form may be a part): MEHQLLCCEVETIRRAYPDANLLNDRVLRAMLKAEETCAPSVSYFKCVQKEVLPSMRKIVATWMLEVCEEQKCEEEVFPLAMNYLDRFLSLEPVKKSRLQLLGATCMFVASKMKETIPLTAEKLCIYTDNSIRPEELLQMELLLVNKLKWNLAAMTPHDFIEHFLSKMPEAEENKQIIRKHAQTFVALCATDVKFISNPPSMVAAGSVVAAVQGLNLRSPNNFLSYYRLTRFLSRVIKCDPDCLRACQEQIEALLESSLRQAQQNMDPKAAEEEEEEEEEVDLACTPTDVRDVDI
T9 sequence (P04626 720-987 limits assumed, species assumed): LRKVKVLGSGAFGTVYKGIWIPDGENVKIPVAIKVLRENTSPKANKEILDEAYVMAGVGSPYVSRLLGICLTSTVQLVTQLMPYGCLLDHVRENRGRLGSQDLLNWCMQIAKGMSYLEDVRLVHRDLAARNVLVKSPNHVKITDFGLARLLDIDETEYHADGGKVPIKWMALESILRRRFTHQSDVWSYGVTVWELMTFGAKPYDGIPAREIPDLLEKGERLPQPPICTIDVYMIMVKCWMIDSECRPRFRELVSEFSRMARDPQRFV
T7 sequence (Q02763 824-1096 limits assumed, species assumed): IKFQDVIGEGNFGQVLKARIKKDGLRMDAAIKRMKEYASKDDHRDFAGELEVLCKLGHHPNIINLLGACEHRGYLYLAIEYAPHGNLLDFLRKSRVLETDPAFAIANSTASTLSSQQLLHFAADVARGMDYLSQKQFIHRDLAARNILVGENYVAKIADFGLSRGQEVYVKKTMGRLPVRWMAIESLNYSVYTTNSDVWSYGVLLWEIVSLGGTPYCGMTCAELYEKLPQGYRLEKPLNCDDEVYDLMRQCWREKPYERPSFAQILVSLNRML
T4 sequence (P12931 270-523 limits assumed, species assumed): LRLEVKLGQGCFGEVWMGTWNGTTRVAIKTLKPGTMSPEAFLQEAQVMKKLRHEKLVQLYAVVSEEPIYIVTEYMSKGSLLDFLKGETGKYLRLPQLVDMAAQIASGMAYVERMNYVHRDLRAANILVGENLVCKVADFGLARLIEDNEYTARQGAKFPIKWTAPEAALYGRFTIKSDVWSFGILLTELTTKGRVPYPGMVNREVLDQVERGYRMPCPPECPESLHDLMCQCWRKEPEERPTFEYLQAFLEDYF
T1 sequence (P35968 834-1162 limits assumed): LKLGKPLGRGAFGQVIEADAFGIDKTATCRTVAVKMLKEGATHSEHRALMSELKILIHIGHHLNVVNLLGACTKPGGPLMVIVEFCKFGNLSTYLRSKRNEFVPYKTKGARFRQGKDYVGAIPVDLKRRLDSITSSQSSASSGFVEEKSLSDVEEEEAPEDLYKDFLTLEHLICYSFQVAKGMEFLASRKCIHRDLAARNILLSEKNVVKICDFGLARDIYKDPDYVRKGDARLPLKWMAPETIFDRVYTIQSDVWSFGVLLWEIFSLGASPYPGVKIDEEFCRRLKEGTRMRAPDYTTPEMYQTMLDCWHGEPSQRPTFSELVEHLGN

- IC50 (human VEGFR2 kinase): 2.3 nM
- IC50 (human VEGFR kinase 3; mean±s.e.): 2.5 ± 0.5 nM
- Fold selectivity vs VEGFR-2, VEGFR-3 (human VEGFR kinase 3; [3]): 1.1
- IC50 (human VEGFR kinase 1; mean±s.e.): 12 ± 2.6 nM
- Fold selectivity vs VEGFR-2, VEGFR-1 (human VEGFR kinase 1; [3]): 5.3
- IC50 (SRC; mean±s.e.): 350 ± 240 nM
- Fold selectivity vs VEGFR-2, SRC (SRC; [3]): 156
- IC50 (Eph-B4; mean±s.e.): 460 ± 30 nM
- Fold selectivity vs VEGFR-2, Eph-B4 (Eph-B4; [3]): 204
- IC50 (c-Fms; mean±s.e.): 530 ± 330 nM
- Fold selectivity vs VEGFR-2, c-Fms (c-Fms; [3]): 237
- IC50 (Tie2; mean±s.e.): 320 ± 40 nM
- Fold selectivity vs VEGFR-2, Tie2 (Tie2; [3]): 144
- IC50 (EGFR; mean±s.e.): 1360 ± 420 nM
- Fold selectivity vs VEGFR-2, EGFR (EGFR; [3]): 605
- IC50 (ErbB2; mean±s.e.): 11500 ± 2740 nM
- Fold selectivity vs VEGFR-2, ErbB2 (ErbB2; [3]): 5125
- IC50 (CDK2): > 20000 nM
- Fold selectivity vs VEGFR-2, CDK2 (CDK2; [3]): >8800
- IC50 (CDK4): > 20000 nM
- Fold selectivity vs VEGFR-2, CDK4 (CDK4; [3]): >8800
- free Cmax (Pharmacokinetics in mice; oral 10 mg kg^−1): 60 nM
- free Cmax (Pharmacokinetics in mice; oral 30 mg kg^−1): 230 nM
- free Cmax (Pharmacokinetics in mice; oral 100 mg kg^−1): 1380 nM
- pharmacokinetic profile (Pharmacokinetics in mice; mouse): good pharmacokinetic profile
- pharmacokinetic profile (Pharmacokinetics in dog): good pharmacokinetic profile
- fraction unbound (Protein binding): 0.01
Compound: CCS(=O)(=O)c1ccc(OC)c(Nc2nccc(N(C)c3ccc4c(C)n[nH]c4c3)n2)c1 [GW654652, N^2-[5-(ethylsulphonyl)-2-methoxyphenyl]-N^4-methyl-N^4-(3-methyl-1H-indazol-6-yl)pyrimidine-2,4-diamine]
- IC50 [1]: 110 nM
- IC50 [2]: 1980 nM
- % Inhibition of tumour growth (HT29 xenograft; HT29, 10 mg kg^−1 oral once daily): 5%
- % Inhibition of tumour growth (HT29 xenograft; HT29, 30 mg kg^−1 oral once daily): 69%
- % Inhibition of tumour growth (HT29 xenograft; HT29, 100 mg kg^−1 oral once daily): 98%
- ED50 (HT29 xenograft; HT29, oral dose producing 50% inhibition of tumour growth): 20 ± 8 mg/kg/day
- % Inhibition of tumour growth (HCT116 xenograft; HCT116, 10 mg kg^−1 oral once daily): 18%
- % Inhibition of tumour growth (HCT116 xenograft; HCT116, 30 mg kg^−1 oral once daily): 59%
- % Inhibition of tumour growth (HCT116 xenograft; HCT116, 100 mg kg^−1 oral once daily): 71%
- ED50 (HCT116 xenograft; HCT116, oral dose producing 50% inhibition of tumour growth): 21 ± 8 mg/kg/day
- % Inhibition of tumour growth (HN5 xenograft; HN5, 10 mg kg^−1 oral once daily): 24%
- % Inhibition of tumour growth (HN5 xenograft; HN5, 30 mg kg^−1 oral once daily): 46%
- % Inhibition of tumour growth (HN5 xenograft; HN5, 100 mg kg^−1 oral once daily): 83%
- ED50 (HN5 xenograft; HN5, oral dose producing 50% inhibition of tumour growth): 28 ± 10 mg/kg/day
- % Inhibition of tumour growth (SW620 xenograft; SW620, 10 mg kg^−1 oral once daily): 12%
- % Inhibition of tumour growth (SW620 xenograft; SW620, 30 mg kg^−1 oral once daily): 44%
- % Inhibition of tumour growth (SW620 xenograft; SW620, 100 mg kg^−1 oral once daily): 74%
- ED50 (SW620 xenograft; SW620, oral dose producing 50% inhibition of tumour growth): 46 ± 11 mg/kg/day
- % Inhibition of tumour growth (PC3 xenograft; PC3, 30 mg kg^−1 oral once daily): 21%
- % Inhibition of tumour growth (PC3 xenograft; PC3, 100 mg kg^−1 oral once daily): 48%
- ED50 (PC3 xenograft; PC3, oral dose producing 50% inhibition of tumour growth): 108 ± 50 mg/kg/day
- % Inhibition of tumour growth (A375P xenograft; 30 mg kg^−1 oral once daily): 14%
- % Inhibition of tumour growth (A375P xenograft; 100 mg kg^−1 oral once daily): 49%
- ED50 (A375P xenograft; oral dose producing 50% inhibition of tumour growth): 114 ± 54 mg/kg/day
